Measured values: patent publication US9243027B2, “TGR5 modulators and methods of use thereof” (Intercept Pharmaceuticals, Inc., priority 2007, dated 2016)

Molecular target: T1, TGR5 receptor (Homo sapiens, UniProt Q8TDU6)
T1 sequence (Q8TDU6 1-330): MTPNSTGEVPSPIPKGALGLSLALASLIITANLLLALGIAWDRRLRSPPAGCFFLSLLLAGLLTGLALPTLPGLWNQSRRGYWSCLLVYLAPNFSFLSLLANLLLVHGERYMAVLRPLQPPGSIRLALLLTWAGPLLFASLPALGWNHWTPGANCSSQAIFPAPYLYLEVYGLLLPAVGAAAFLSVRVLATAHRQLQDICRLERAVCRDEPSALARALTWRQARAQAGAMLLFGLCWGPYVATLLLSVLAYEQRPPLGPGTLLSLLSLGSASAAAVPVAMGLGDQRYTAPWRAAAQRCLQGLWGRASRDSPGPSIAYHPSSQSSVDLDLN
Experiment: Potency and efficacy on TGR5 receptor, in vitro assays (Kawamata 2003)
Assay type: cell-based
Experimental: The potency and efficacy of the compounds of the invention on TGR5 receptor was evaluated using in vitro assays.

## C[C@H](CCC(=O)O)[C@H]1CCC2C3C(CC[C@@]21C)[C@@]1(C)CC[C@@H](O)C[C@H]1C[C@H]3O (stereo partly shown) [CDCA, ChenoDeoxyCholicAcid]
  TGR5 Data Efficacy: 100%
